Source: ChEMBL document CHEMBL4811314, “Synthesis, biochemical, and biological evaluation of C2 linkage derivatives of amino sugars, inhibitors of glucokinase from Trypanosoma cruzi” (Bioorg Med Chem Lett, 2021)

Tests used:
[1] = Inhibition of Trypanosoma cruzi glucokinase
Hexokinase-4 = target: T1, Hexokinase-4 (Homo sapiens, UniProt P35557); assay: Inhibition of human hexokinase-4 at 20 uM relative to control
T1 sequence (P35557 whole entry): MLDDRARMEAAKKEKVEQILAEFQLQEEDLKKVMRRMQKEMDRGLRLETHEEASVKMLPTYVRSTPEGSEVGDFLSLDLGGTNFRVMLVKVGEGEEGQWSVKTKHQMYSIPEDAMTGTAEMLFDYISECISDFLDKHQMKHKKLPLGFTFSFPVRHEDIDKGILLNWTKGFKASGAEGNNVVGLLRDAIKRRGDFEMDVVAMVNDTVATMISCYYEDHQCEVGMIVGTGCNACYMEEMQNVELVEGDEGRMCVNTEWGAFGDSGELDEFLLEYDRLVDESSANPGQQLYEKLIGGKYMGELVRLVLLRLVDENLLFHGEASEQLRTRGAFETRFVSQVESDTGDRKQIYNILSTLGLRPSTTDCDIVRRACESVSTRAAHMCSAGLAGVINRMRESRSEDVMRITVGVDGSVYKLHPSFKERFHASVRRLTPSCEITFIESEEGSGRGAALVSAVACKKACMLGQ

Saccharomyces cerevisiae = assay: Inhibition of Saccharomyces cerevisiae G6PDH at 20 uM relative to control
Trypanosoma cruzi [2] = assay: Antitrypanosomal activity against intracellular Trypanosoma cruzi Tulahuen […] infected in mouse NIH/3T3 cells assessed as parasite growth inhibition; format: functional, organism-based; settings: NIH3T3
Trypanosoma cruzi [3] = assay: Antitrypanosomal activity against Trypanosoma cruzi Tulahuen amastigotes infected in mouse NIH/3T3 cells assessed as parasite growth inhibition incubated for 4 days in glucose rich DMEM medium; format: functional, organism-based; settings: NIH3T3, 96 h
[4] = Inhibition of His6-tagged Trypanosoma cruzi glucokinase using D-glucose and ATP as substrates
Trypanosoma cruzi [5] = assay: Competitive inhibition of Trypanosoma cruzi glucokinase assessed as Km using varying levels of D-glucose as substrate in presence of ATP by Lineweaver-Burk plot analysis
[6] = Competitive inhibition of Trypanosoma cruzi glucokinase using D-glucose as substrate in presence of ATP by Lineweaver-Burk plot analysis
Trypanosoma cruzi [7] = assay: Competitive inhibition of Trypanosoma cruzi glucokinase assessed as Vmax using varying levels of D-glucose as substrate in presence of ATP by Lineweaver-Burk plot analysis

Ki [1] [µM]	inhibition at 20 µM (Hexokinase-4) [%]	inhibition (Saccharomyces cerevisiae) [%]	IC50 (Trypanosoma cruzi [2]) [µM]	IC50 (Trypanosoma cruzi [3]) [µM]	Km (Trypanosoma cruzi [5]) [µM]	Ki [6] [µM]	Vmax (Trypanosoma cruzi [7])	SMILES	Ki [4] [µM]
> 500	29.8	0	19.9					O=C(N[C@H]1C(O)O[C@H](CO)[C@H](O)[C@@H]1O)c1cccc(Br)c1 (stereo partly specified)	
320	27	0	38.4					O=C(N[C@@H]1C(O)O[C@H](CO)[C@@H](O)[C@@H]1O)c1cccc(Br)c1 (stereo partly specified)	
481	48.8	0	> 80					Cc1ccc(C(=O)N[C@@H]2C(O)O[C@H](CO)[C@@H](O)[C@@H]2O)o1 (stereo partly specified)	
> 500	36.5	0	66.6					O=C(N[C@H]1C(O)O[C@H](CO)[C@H](O)[C@@H]1O)c1cc2ccccc2o1 (stereo partly specified)	
> 500	47.2	0	36.4					O=C(N[C@H]1C(O)O[C@H](CO)[C@H](O)[C@@H]1O)c1ccoc1 (stereo partly specified)	
			1.85					C[C@@H]1[C@H](O)[C@@H](C)/C=C/C=C/C=C/C=C/C=C/C=C/C=C/[C@H](O[C@@H]2O[C@H](C)[C@@H](O)[C@H](N)[C@@H]2O)C[C@@H]2O[C@](O)(C[C@@H](O)C[C@@H](O)[C@H](O)CC[C@@H](O)C[C@@H](O)CC(=O)O[C@H]1C)C[C@H](O)[C@H]2C(=O)O [AMPHOTERICIN B]	
> 500	8.3	0	37.9					O=C(N[C@H]1C(O)O[C@H](CO)[C@H](O)[C@@H]1O)c1ccc(CCl)cc1 (stereo partly specified)	
				1.12				O=C(Cn1ccnc1[N+](=O)[O-])NCc1ccccc1 [BENZNIDAZOLE]	
> 500	31.6	0	67.5					O=C(N[C@@H]1C(O)O[C@H](CO)[C@@H](O)[C@@H]1O)c1ccoc1 (stereo partly specified)	
	2	0		48.7				O=C(N[C@H]1C(O)O[C@H](CO)[C@@H](O)[C@@H]1O)OCc1ccccc1 (stereo partly specified)	0.71
> 500	28.1	0	38.4					O=C(N[C@@H]1C(O)O[C@H](CO)[C@@H](O)[C@@H]1O)c1ccc(CCl)cc1 (stereo partly specified)	
> 500	12.4	0	42.5					O=C(N[C@@H]1C(O)O[C@H](CO)[C@@H](O)[C@@H]1O)c1cc2ccccc2o1 (stereo partly specified)	
107	25.2	0	27.2		890	107	8.1 10^-5M/min	O=C(N[C@H]1C(O)O[C@H](CO)[C@@H](O)[C@@H]1O)c1cc2ccccc2o1 (stereo partly specified)	
15.2	41.2	0	49.9		840	15.2	6.3 10^-5M/min	O=C(N[C@H]1C(O)O[C@H](CO)[C@@H](O)[C@@H]1O)c1ccoc1 (stereo partly specified)	
> 500	35.8	0	52.9					O=C(N[C@H]1C(O)O[C@H](CO)[C@@H](O)[C@@H]1O)c1ccc(CCl)cc1 (stereo partly specified)	
18	31.2	0	66.2					O=C(N[C@H]1C(O)O[C@H](CO)[C@@H](O)[C@@H]1O)c1cccc(Br)c1 (stereo partly specified)	

SMILES	Ki [1] [µM]	inhibition at 20 µM (Hexokinase-4) [%]	inhibition (Saccharomyces cerevisiae) [%]	IC50 (Trypanosoma cruzi [2]) [µM]	IC50 (Trypanosoma cruzi [3]) [µM]	Km (Trypanosoma cruzi [5]) [µM]	Ki [6] [µM]	Vmax (Trypanosoma cruzi [7])	Ki [4] [µM]
O=C(N[C@@H]1C(O)O[C@H](CO)[C@@H](O)[C@@H]1O)c1ccccc1 (stereo partly specified)	> 500	55.5	0	43.5					
O=C(N[C@H]1C(O)O[C@H](CO)[C@@H](O)[C@@H]1O)c1ccccc1 (stereo partly specified)		39.2	0.5		16.1				32
O=C(N[C@H]1C(O)O[C@H](CO)[C@H](O)[C@@H]1O)c1ccccc1 (stereo partly specified)	> 500	37.8	0	55.3					
